Assay results taken from patent publication US20230250066A1, “HERBICIDAL CINNOLINE DERIVATIVES” (SYNGENTA CROP PROTECTION AG, priority 2020, published 2023).

Columns and labels:
Type in all cases: in vivo
[1] = tested on: Setaria faberi (SETFA); assay: Pre-emergence herbicidal test; conditions: 1000 g/ha, evaluated after 13 days
[2] = tested on: Abutilon theophrasti (ABUTH); assay: Post-emergence herbicidal test; conditions: 1000 g/ha unless otherwise stated, evaluated after 13 days
Method: (§1) Seeds of a variety of test species are sown in standard soil in pots (Amaranthus retoflexus (AMARE), Solanum nigrum (SOLNI), Setaria faberi (SETFA), Lolium perenne (LOLPE), Echinochloa crus-galli (ECHCG), Ipomoea hederacea (IPOHE), Abutilon theophrasti (ABUTH), Zea mays (ZEAMX)). After 8 days cultivation under controlled conditions in a glasshouse (at 24° C./16° C., day/night; 14 hours light; 65% humidity), the plants are sprayed with an aqueous spray solution derived from the formulation of the technical active ingredient in acetone/water (50:50) solution containing 0.5% Tween 20 (polyoxyethelyene sorbitan monolaurate, CAS RN 9005-64-5). Compounds are applied at 1000 g/ha unless otherwise stated. The test plants are then grown in a glasshouse under controlled conditions in a glasshouse (at 24° C./16° C., day/night; 14 hours light; 65% humidity) and watered twice daily. After 13 days the test is evaluated for the percentage damage caused to the plant. The biological activities are shown in the following table on a five-point scale (5=81-100%; 4=61-80%; 3=41-60%; 2=21-40%; 1=10-20%; 0=0%;−=not tested).

[3] = tested on: Zea mays (ZEAMX); assay: Post-emergence herbicidal test; conditions: 1000 g/ha unless otherwise stated, evaluated after 13 days
Method: as §1

[4] = tested on: Ipomoea hederacea (IPOHE); assay: Post-emergence herbicidal test; conditions: 1000 g/ha unless otherwise stated, evaluated after 13 days
Method: as §1

[5] = tested on: Echinochloa crus-galli (ECHCG); assay: Post-emergence herbicidal test; conditions: 1000 g/ha unless otherwise stated, evaluated after 13 days
Method: as §1

[6] = tested on: Setaria faberi (SETFA); assay: Post-emergence herbicidal test; conditions: 1000 g/ha unless otherwise stated, evaluated after 13 days
Method: as §1

[7] = tested on: Amaranthus retoflexus (AMARE); assay: Post-emergence herbicidal test; conditions: 1000 g/ha unless otherwise stated, evaluated after 13 days
Method: as §1

[8] = tested on: Zea mays (ZEAMX); assay: Pre-emergence herbicidal test; conditions: 1000 g/ha, evaluated after 13 days
[9] = tested on: Abutilon theophrasti (ABUTH); assay: Pre-emergence herbicidal test; conditions: 1000 g/ha, evaluated after 13 days
[10] = tested on: Amaranthus retoflexus (AMARE); assay: Pre-emergence herbicidal test; conditions: 1000 g/ha, evaluated after 13 days
[11] = tested on: Ipomoea hederacea (IPOHE); assay: Pre-emergence herbicidal test; conditions: 1000 g/ha, evaluated after 13 days
[12] = tested on: Echinochloa crus-galli (ECHCG); assay: Pre-emergence herbicidal test; conditions: 1000 g/ha, evaluated after 13 days

CC(C)Cc1cc(S(C)(=O)=O)c2c(=O)c(C(=O)O)nn(-c3ccc(OC(F)(F)F)cc3)c2c1 [Compound P14, 7-isobutyl-5-methylsulfonyl-4-oxo-1-[4-(trifluoromethoxy)phenyl]cinnoline-3-carboxylic acid]
1 (1=10-20%): percentage damage caused to the plant, five-point scale, SETFA [1] | percentage damage caused to the plant, ABUTH (five-point scale) [2] | percentage damage caused to the plant, AMARE (five-point scale) [7] | percentage damage caused to the plant, five-point scale, ZEAMX [8] | percentage damage caused to the plant, five-point scale, ABUTH [9] | percentage damage caused to the plant, five-point scale, AMARE [10] | percentage damage caused to the plant, five-point scale, ECHCG [12]
0 (0=0%): percentage damage caused to the plant, ZEAMX (five-point scale) [3] | percentage damage caused to the plant, IPOHE (five-point scale) [4] | percentage damage caused to the plant, ECHCG (five-point scale) [5] | percentage damage caused to the plant, SETFA (five-point scale) [6] | percentage damage caused to the plant, five-point scale, IPOHE [11]

CC(C)Cc1ccc2c(c1S(C)(=O)=O)c(=O)c(C(=O)O)nn2-c1ccc(OC(F)(F)F)cc1 [Compound P15, 6-isobutyl-5-methylsulfonyl-4-oxo-1-[4-(trifluoromethoxy)phenyl]cinnoline-3-carboxylic acid]
1 (1=10-20%): percentage damage caused to the plant, five-point scale, SETFA [1] | percentage damage caused to the plant, ABUTH (five-point scale) [2] | percentage damage caused to the plant, ZEAMX (five-point scale) [3] | percentage damage caused to the plant, ECHCG (five-point scale) [5] | percentage damage caused to the plant, SETFA (five-point scale) [6] | percentage damage caused to the plant, AMARE (five-point scale) [7] | percentage damage caused to the plant, five-point scale, ABUTH [9] | percentage damage caused to the plant, five-point scale, AMARE [10] | percentage damage caused to the plant, five-point scale, ECHCG [12]
0 (0=0%): percentage damage caused to the plant, IPOHE (five-point scale) [4] | percentage damage caused to the plant, five-point scale, ZEAMX [8] | percentage damage caused to the plant, five-point scale, IPOHE [11]

COc1ccc2c(c1S(C)(=O)=O)c(=O)c(C(=O)O)nn2-c1ccc(OC(F)(F)F)cc1 [Compound P18, 6-methoxy-5-methylsulfonyl-4-oxo-1-[4-(trifluoromethoxy)phenyl]cinnoline-3-carboxylic acid]
1 (1=10-20%): percentage damage caused to the plant, ABUTH (five-point scale) [2] | percentage damage caused to the plant, ZEAMX (five-point scale) [3] | percentage damage caused to the plant, ECHCG (five-point scale) [5] | percentage damage caused to the plant, AMARE (five-point scale) [7] | percentage damage caused to the plant, five-point scale, ZEAMX [8] | percentage damage caused to the plant, five-point scale, ECHCG [12]
0 (0=0%): percentage damage caused to the plant, five-point scale, SETFA [1] | percentage damage caused to the plant, IPOHE (five-point scale) [4] | percentage damage caused to the plant, five-point scale, ABUTH [9] | percentage damage caused to the plant, five-point scale, AMARE [10] | percentage damage caused to the plant, five-point scale, IPOHE [11]
2 (2=21-40%): percentage damage caused to the plant, SETFA (five-point scale) [6]

COc1cc(S(C)(=O)=O)c2c(=O)c(C(=O)O)nn(-c3ccc(OC(F)(F)F)cc3)c2c1 [Compound P19, 7-methoxy-5-methylsulfonyl-4-oxo-1-[4-(trifluoromethoxy)phenyl]cinnoline-3-carboxylic acid]
5 (5=81-100%): percentage damage caused to the plant, five-point scale, SETFA [1]
3 (3=41-60%): percentage damage caused to the plant, SETFA (five-point scale) [6]
0 (0=0%): percentage damage caused to the plant, five-point scale, ZEAMX [8] | percentage damage caused to the plant, five-point scale, ABUTH [9] | percentage damage caused to the plant, five-point scale, IPOHE [11]
1 (1=10-20%): percentage damage caused to the plant, ABUTH (five-point scale) [2] | percentage damage caused to the plant, ZEAMX (five-point scale) [3] | percentage damage caused to the plant, IPOHE (five-point scale) [4] | percentage damage caused to the plant, AMARE (five-point scale) [7] | percentage damage caused to the plant, five-point scale, AMARE [10]
2 (2=21-40%): percentage damage caused to the plant, ECHCG (five-point scale) [5] | percentage damage caused to the plant, five-point scale, ECHCG [12]

CS(=O)(=O)c1c(F)ccc2c1c(=O)c(C(=O)O)nn2-c1ccc(OC(F)(F)F)cc1 [Compound P20, 6-fluoro-5-methylsulfonyl-4-oxo-1-[4-(trifluoromethoxy)phenyl]cinnoline-3-carboxylic acid]
0 (0=0%): percentage damage caused to the plant, five-point scale, SETFA [1] | percentage damage caused to the plant, ABUTH (five-point scale) [2] | percentage damage caused to the plant, ZEAMX (five-point scale) [3] | percentage damage caused to the plant, IPOHE (five-point scale) [4] | percentage damage caused to the plant, ECHCG (five-point scale) [5] | percentage damage caused to the plant, SETFA (five-point scale) [6] | percentage damage caused to the plant, AMARE (five-point scale) [7] | percentage damage caused to the plant, five-point scale, ZEAMX [8] | percentage damage caused to the plant, five-point scale, ABUTH [9] | percentage damage caused to the plant, five-point scale, AMARE [10] | percentage damage caused to the plant, five-point scale, IPOHE [11] | percentage damage caused to the plant, five-point scale, ECHCG [12]

CS(=O)(=O)c1cc(F)cc2c1c(=O)c(C(=O)O)nn2-c1ccc(OC(F)(F)F)cc1 [Compound P21, 7-fluoro-5-methylsulfonyl-4-oxo-1-[4-(trifluoromethoxy)phenyl]cinnoline-3-carboxylic acid]
1 (1=10-20%): percentage damage caused to the plant, five-point scale, ZEAMX [8]
2 (2=21-40%): percentage damage caused to the plant, ECHCG (five-point scale) [5] | percentage damage caused to the plant, SETFA (five-point scale) [6] | percentage damage caused to the plant, five-point scale, ECHCG [12]
4 (4=61-80%): percentage damage caused to the plant, five-point scale, SETFA [1]
0 (0=0%): percentage damage caused to the plant, ABUTH (five-point scale) [2] | percentage damage caused to the plant, ZEAMX (five-point scale) [3] | percentage damage caused to the plant, IPOHE (five-point scale) [4] | percentage damage caused to the plant, AMARE (five-point scale) [7] | percentage damage caused to the plant, five-point scale, ABUTH [9] | percentage damage caused to the plant, five-point scale, AMARE [10] | percentage damage caused to the plant, five-point scale, IPOHE [11]

CCOC(=O)c1nn(-c2ccc(OC(F)(F)F)cc2)c2cccc(S(=O)(=O)CC)c2c1=O [Compound P22, ethyl 5-ethylsulfonyl-4-oxo-1-[4-(trifluoromethoxy)phenyl]cinnoline-3-carboxylate]
0 (0=0%): percentage damage caused to the plant, five-point scale, SETFA [1] | percentage damage caused to the plant, ZEAMX (five-point scale) [3] | percentage damage caused to the plant, five-point scale, ZEAMX [8] | percentage damage caused to the plant, five-point scale, ABUTH [9] | percentage damage caused to the plant, five-point scale, AMARE [10] | percentage damage caused to the plant, five-point scale, IPOHE [11] | percentage damage caused to the plant, five-point scale, ECHCG [12]
1 (1=10-20%): percentage damage caused to the plant, ABUTH (five-point scale) [2] | percentage damage caused to the plant, IPOHE (five-point scale) [4] | percentage damage caused to the plant, ECHCG (five-point scale) [5] | percentage damage caused to the plant, SETFA (five-point scale) [6] | percentage damage caused to the plant, AMARE (five-point scale) [7]
